Results published in patent US8530457B2, “Method for the treatment of lymphangioleiomyomatosis (LAM)” (Fox Chase Cancer Center, priority 2008, dated 2013).
Entries after “also recorded” stand apart in the source; their conditions may differ.

Legend:
[1] = system: ELT3 cells; experiment: ELT3 cell proliferation in response to E2, 3H-thymidine incorporation; assay type: cell-based, rat; conditions: day 5, E2 treatment vs control
Description: (§1) ELT-3 cells (Eker rat uterine leiomyoma-derived smooth muscle cells) were cultured in IIA complete medium (DMEM/F12 basal media including 15% FBS, 0.2 μM hydrocortisone, 10 μU/mL vasopressin, 1×FeSO4, 10 ng/mL EGF, 1×ITS, 0.01 nM triiolythryonine, 0.12% sodium bicarbonate, 1× cholesterol and 1× penicillin/streptomycin) supplemented with 15% FBS. Prior to the in vitro experiments, cells were maintained in media supplemented with 10%-charcoal-stripped FBS for three days and then serum starved for 24 hours in serum-free and phenol red-free medium. E2 (10 nM, Sigma, St. Louis, Mo.) or PD98059 (50 μM, Cell Signaling Technology, Danvers, Mass.) was added to the cells as indicated.
The surviving cells in suspension were plated in triplicate in 24-well plates and allowed to grow adherently for 24 hours. ^3H-thymidine (1 μCi) was added to the media and the cells were incubated at 37° C. for 6 hours, washed with PBS, and lysed in 0.5 mL of 0.5 N NaOH plus 0.5% SDS. ^3H-thymidine incorporation was measured by scintillation counting. […]

[2] = system: tuberin-deficient ELT3 cells; experiment: Subcutaneous ELT3 xenograft in CB17-scid mice: primary tumors and pulmonary metastases; assay type: in vivo
Description: (§2) All animal work was performed in accordance with a protocol approved by the FCCC Institutional Animal Care and Use Committee. Male CB-17 scid mice, six weeks of age, were purchased from Fox Chase Cancer Center. Female ovariectomized CB17-scid mice, six to eight weeks of age, were purchased from Taconic (Hudson, N.Y.). One week prior to cell injection, 17-beta estradiol or control-placebo pellets (2.5 mg, 90-day release) (Innovative Research America, Sarasota, Fla.) were implanted. For xenograft tumor establishment, subconfluent ELT3 cells were harvested, washed in PBS, and resuspended in 0.2 ml of serum-free medium. Two millions ELT3 cells were injected into both flanks of the mouse subcutaneously. For metastatic and circulating tumor cells assays, 2×10^5 ELT3 or ELT3-Luc cells were resuspended in 0.1 ml PBS and injected into the lateral tail vein of mice. Lung metastases were scored from 3-5 five-micron H&E stained sections of each lobe at 40× magnification by observers blinded to the experimental conditions.
CI-1040 (PD184352) was obtained from Pfizer (Ann Arbor, Mich.) and was prepared in a vehicle of 10% Cremophore EL (Sigma), 10% ethanol and 80% water. RAD001 was obtained from Novartis Pharma AG (Basel, Switzerland) and was diluted in double-distilled water. Drug were administered one day post cell inoculation at the following doses: RAD001 (4 mg/kg/day, gavage); CI-1040, (150 mg/kg/day gavage, twice a day)
Subcutaneous tumors were removed from animals upon sacrifice. Tumor weights were recorded, and tumor size was measured in two dimensions with calipers.
ELT3 cells were inoculated subcutaneously into the flanks of ovariectomized CB17-SCID mice, which were supplemented 1 week before with either placebo or E2 pellets (2.5 mg, 90-day release). Tumors arose in 100% of both estrogen and placebo-treated mice. […] The proliferative potential of ELT3 cells in vivo was examined using Ki-67 immunoreactivity.

[3] = system: ELT3 cells; experiment: Circulating and lung tumor cell DNA by rat-specific real-time PCR; assay type: in vivo, mice
Description: as §2, with “For metastatic and circulating tumor cells assays, 2×10^5 ELT3 or ELT3-Luc cells were resuspended in 0.1 ml PBS and injected into the lateral tail vein of mice.” left out
Mouse blood (0.5 mL) was collected at indicated times by intraocular bleed, and red blood cells were lysed before DNA extraction. At death, the lungs were dissected and stored at −80° C. for DNA extraction. Rat and mouse DNAs were quantified by using TaqMan-chemistry based real-time PCR assays. […] The primers amplify a LINE repeat element (AC087102). The assay for mouse is for the gene Anf. The sequences (all 5′ to 3′) for the primers and probes are:
PCR master mix from Eurogentec was used for PCR. Primers and probe concentrations were 500 and 100 nM, respectively. Cycling conditions were 95° C., 15 minutes followed by 40 (2-steps) cycles (95° C., 15 sec; 60° C., 60 sec). Reactions were run using an ABI 7900 HT instrument. Each sample was analyzed using two different amounts of input DNA. […] Bioluminescent Reporter Imaging

[4] = system: ELT3-luciferase cells; experiment: Lung colonization of i.v. injected ELT3-luciferase cells, bioluminescent imaging; assay type: in vivo, mice
Description: as §2, with “For metastatic and circulating tumor cells assays, 2×10^5 ELT3 or ELT3-Luc cells were resuspended in 0.1 ml PBS and injected into the lateral tail vein of mice.” left out
One million ELT3 cells were transfected with 3 μg of pCMV-Luc (Invitrogen, Carlsbad, Calif.) using Nucleofection reagent (Amaxa, Gaithersburg, Md.). Cells were selected in G418 for 2 weeks, and G418 resistant clones were isolated and examined for luciferase activity.
Ten minutes prior to imaging, animals were injected with luciferin (Xenogen, Alameda, Calif.) (120 mg/kg, i.p.). Bioluminescent signals were recorded at indicated times post cell injection using Xenogen IVIS System (Xenogen). Total photon flux at the chest regions and from the dissected lungs was analyzed.

[5] = system: p42/44 MAPK; experiment: Immunoblot of phosphorylated p42/44 MAPK in ELT3 cells; assay type: cell-based, rat
Description: Prior to the in vitro experiments, cells were maintained in media supplemented with 10%-charcoal-stripped FBS for three days and then serum starved for 24 hours in serum-free and phenol red-free medium. E2 (10 nM, Sigma, St. Louis, Mo.) or PD98059 (50 μM, Cell Signaling Technology, Danvers, Mass.) was added to the cells as indicated.
(§3) Cells were rinsed once in ice-cold PBS and lysed in PTY buffer (50 mM Hepes, pH 7.5, 50 mM NaCl, 5 mM EDTA, 50 mM NaF, 10 mM Na4P2O7, and 1% Triton 100) supplemented with phosphatase inhibitors. Lysates were resolved by SDS-PAGE electrophoresis and transferred onto Immobilon P membranes (Millipore). Cytoplasmic and nuclear fractions were separated using CellLytic Nuclear Extraction Kit (Sigma) before electrophoresis. […] Western blots were developed using horseradish peroxidase-conjugated secondary antibodies and ECL chemiluminescence (Amersham Biosciences).

[6] = system: C-Raf; experiment: Immunoblot of phosphorylated C-Raf/Raf-1 in ELT3 cells; assay type: cell-based, rat; conditions: E2 stimulation
Description: as §1
(§4) Cells were rinsed once in ice-cold PBS and lysed in PTY buffer (50 mM Hepes, pH 7.5, 50 mM NaCl, 5 mM EDTA, 50 mM NaF, 10 mM Na4P2O7, and 1% Triton 100) supplemented with phosphatase inhibitors. Lysates were resolved by SDS-PAGE electrophoresis and transferred onto Immobilon P membranes (Millipore). Cytoplasmic and nuclear fractions were separated using CellLytic Nuclear Extraction Kit (Sigma) before electrophoresis. […]

[7] = system: ribosomal protein S6; experiment: Immunoblot of phosphorylated ribosomal protein S6 in ELT3 cells; assay type: cell-based, rat; conditions: E2 stimulation
Description: as §1, §4

[8] = system: p42/44 MAPK; experiment: Phospho-p42/44 MAPK immunostaining of primary xenograft tumors; assay type: in vivo, mice; conditions: placebo 28%
Description: Sections were deparaffinized, incubated overnight with primary antibodies at 4° C. in a humidified chamber and then rinsed and incubated with biotinylated secondary antibodies for 30 minutes at room temperature. Slides were developed using the Broad Spectrum AEC Histostain-Plus (Invitrogen) or Histostain-Plus kit (Invitrogen), and they were counterstained with Gill's hematoxylin.
as §2

[9] = system: ELT3 cells; experiment: Anoikis assay of ELT3 cells on PolyHEMA (caspase-3, DNA fragmentation, Bim, regrowth); assay type: cell-based, rat
Description: as §3
ELT3 cells were cultured with or without 10 nM E2 in serum-free and phenol red-free medium supplemented with 10% charcoal-stripped FBS for 24 hours. […] Cell death as a function of DNA fragmentation was detected using Cell Death Detection ELISA kit (Roche Diagnostics).
The surviving cells in suspension were plated in triplicate in 24-well plates and allowed to grow adherently for 24 hours. ^3H-thymidine (1 μCi) was added to the media and the cells were incubated at 37° C. for 6 hours, washed with PBS, and lysed in 0.5 mL of 0.5 N NaOH plus 0.5% SDS. ^3H-thymidine incorporation was measured by scintillation counting.

[10] = female mice, subset n=4 with primary tumors of similar size
[11] = RAD001 4 mg/kg/day by gavage, 5 days per week, in the presence of estrogen or placebo

17β-estriadiol [E2]
increase in 3H-thymidine incorporation [1]: 2.8 fold | average number of pulmonary metastases, size-matched subset [2, 10]: 6 metastases/mouse | mice that developed pulmonary metastases, size-matched subset [2, 10]: Three | primary tumor size, size-matched subset [2, 10]: 198±20 mm^2 | tumor size relative to placebo-treated animals ([2]; male mice, 8 weeks post-cell inoculation): 2.9 fold | average number of pulmonary metastases ([2]; male mice, 8 weeks post-inoculation): 14 metastases/mouse | mice with pulmonary metastases ([2]; male mice, 8 weeks post-inoculation, 10 of 10): 100% | mice in which tumors arose ([2]; ovariectomized female CB17-SCID mice, E2 pellets 2.5 mg 90-day release): 100% | average number of pulmonary metastases ([2]; ovariectomized female mice): 15 metastases/mouse | mice with pulmonary metastases ([2]; ovariectomized female mice, 5 of 9): 56% | mean tumor area ([2]; ovariectomized female mice, post-inoculation week 8): 287±43 mm^2 | number of Ki-67 positive cells in tumors, higher than placebo ([2]; xenograft tumors, female mice, vs placebo-treated tumors): 17% | increase in circulating cells ([3]; 6 h after i.v. injection of 2×10^5 ELT3 cells, vs placebo): 2.5 fold | increase in lung seeding of ELT3 cells ([3]; lungs 24 h after i.v. injection, vs placebo): 2 fold | amount of circulating tumor cell DNA vs placebo ([3]; xenograft mice, 7 weeks post-cell inoculation, tumors of similar size): striking increase | bioluminescence in chest regions, higher than placebo ([4]; 3 h post-cell injection): 2 fold | bioluminescence in chest regions, higher than placebo ([4]; 24 h post-cell injection): 5 fold | time to induced phosphorylation of p42/44 MAPK ([5]; 10 nM E2): ≤ 15 min | time to nuclear translocation of phospho-MAPK ([5]; nuclear and cytoplasmic fractions): ≤ 5 min | time to increased phosphorylation of C-Raf at Ser-338 [6]: ≤ 2 min | mTOR activation as measured by ribosomal protein S6 phosphorylation [7]: does not affect | percentage of cells with primarily nuclear phospho-MAPK [8]: 65% | DNA fragmentation ([9]; 10 nM E2, PolyHEMA, at 1 and 24 h, ELISA): significantly reduced | caspase-3 cleavage ([9]; 10 nM E2, PolyHEMA, at 6, 16 and 24 h): reduced | 3H-thymidine incorporation after replating ([9]; 24 h on PolyHEMA, 24 h after replating on adherent plates): significant increase | accumulation of Bim ([9]; after 1 h in detachment conditions): decreased | phosphorylation of S6K and S6 ([9]; detachment conditions, E2 stimulation): did not change

O=C(NOCC1CC1)c1ccc(F)c(F)c1Nc1ccc(I)cc1Cl [CI-1040, 2-(2-chloro-4-iodo-phenylamino)-N-cyclopropylmethoxy-3,4-difluoro-benzamide]
tumor formation ([2]; CI-1040 150 mg/kg/day by gavage, twice a day, not statistically significant): delayed | reduction of the size of primary tumors ([2]; E2 animals, CI-1040 150 mg/kg/day by gavage, not statistically significant): 25% | lung metastases ([2]; mice treated with E2 plus CI-1040 150 mg/kg/day by gavage, 150 mg/kg/day): no lung metastases were detected; also recorded: completely blocked | reduction of levels of circulating ELT3 cells in the blood ([3]; E2-treated xenograft animals, CI-1040 150 mg/kg/day by gavage): 84% | decrease of bioluminescence in chest regions, E2 plus CI-1040 vs E2 ([4]; 5 h post-cell injection): 55% | reduction of bioluminescent signals in ex vivo lungs, E2 plus CI-1040 vs E2 ([4]; 60 h post-cell injection): 96%

COc1cccc(-c2cc(=O)c3ccccc3o2)c1N [PD98059]
E2-induced phosphorylation of p42/44 MAPK ([5]; pretreatment with PD98059 (50 μM)): blocked | phosphorylation of S6K ([9]; 1 h after detachment): decreased | E2-enhanced survival (3H-thymidine incorporation after replating) ([9]; 24 h on PolyHEMA then replated, PD98059 treatment): blocked | estrogen's inhibition of Bim accumulation and caspase-3 cleavage ([9]; preincubation, after 4 h in detachment conditions): partially blocked

CO[C@H]1C[C@@H]2CC[C@@H](C)[C@@](O)(O2)C(=O)C(=O)N2CCCC[C@H]2C(=O)O[C@H]([C@H](C)C[C@@H]2CC[C@@H](OCCO)[C@H](OC)C2)CC(=O)[C@H](C)/C=C(\C)[C@@H](O)[C@@H](OC)C(=O)[C@H](C)C[C@H](C)/C=C/C=C/C=C/1C [RAD001]
lung metastasis [2, 11]: completely blocked | primary tumor development [2, 11]: completely blocked
